Molecules are shown by their SMILES. Structures can show the parent of a compound that is named as a salt. Where two headings read alike, the source gives them in different places.

Data set [1] is described as follows: Antibiotics remaining after curing, EXP12-formula coating with Irgacure 2959, HPLC peak integration (Example 13). It is filed as physicochemical. The conditions noted are these: cured specimen with drug vs specimen 9, Irgacure 2959, UV-C chamber, curing time 10 mins. As to the method: All procedures are same as Example 12 except the PTPO is replaced by Irgacure 2959. The curing time was set to 10 mins. The UV source was Ariste UV-C chamber. […]

The format of data set [2] is physicochemical. The conditions noted are these: 0.4 mg/cm^2. The procedure: Three 35.3 mg, 3.24 cm^2 pieces of polypropylene mesh were cut. About 80 mg thiolene formula (67.22 wt % pentaerythritol tetrakis(3-mercaptopropionate), 32.73 wt % triallyl isocyanurate, and 0.05 wt % hydroquinone:tertbutyl cathetol (1:1 mixture by moles), density is, ca, 1.2 g/mL) was weighed and dissolve the formula in acetone aiming for the concentration of 200 mg/mL. Weighed about 2 mg PTPO and dissolved it in acetone aiming for the concentration of 10 mg/mL. Took 8.1 μL of solution of PTPO (which contained 81 ug PTPO) and 81 μL of the thiolene solution (which contained 16.2 mg of thiolene formula) and mixed them in a 1.5 mL centrifuge tube, so that the PTPO to monomer weight ratio was 0.005. The thiolene formula to PP mesh ratio was 5 mg/cm^2. Drugs were dissolved in methanol and drug/methanol solutions were mixed with monomer/acetone solutions such that solvent ratios were at 2:1 acetone:methanol for drug containing specimens (Table 8). Those specimens not containing drug used pure acetone solvents in the coating formulation. […]
The concentration of minocycline hydrochloride and rifampin in specimen 8 was determined using direct proportions of peak area integrations and taking of […] as 100% drug control. […] The antibiotics remaining after curing was calculated as: {(Peak integration of specimen 8)/(peak integration of specimen 9)}×100%

Data set [3] is classed as physicochemical. The note with it: 0.04 mg/cm^2. The procedure: Three pieces, each approximate 4 cm^2, of polypropylene (PP) mesh (density d=107 g/m^2) were cut and weighed to make sure that each piece has same weight. The weight was 42.7 mg for each piece as the actual area was, ca, 42.7 mg/(10.7 mg/cm^2)=4 cm^2. Polyethylene glycol dimethacrylate (PEG DM) (60 mg) was weighed and dissolve the in acetone making the concentration as 100 mg/mL. PTPO (4.5 mg) was weighed and dissolve in acetone making the concentration as 10 mg/mL. 5 μL of PTPO solution (containing 50 ug PTPO) in step and 100 μL of PEG DM solution (containing 10 mg of PEG DM formula, described above) were mixed in a 1.5 mL centrifuge tube so that the PTPO to PEG DM weight ratio was 0.5%. Took preweighed 157 μg of minocycline and 157 μg of rifampin, so that the drug loading was about 0.04 mg/cm^2 in this experiment for each drug. The solutions were transferred onto PP mesh using an automatic pipette while the meshes were held by a plastic clamp. Specimen 4 and 5 were subjected to curing while specimen 6 was chosen as a reference. The thiolene formula loading was 2.5 mg/cm^2 in this experiment. […]
Using direct proportions of peak integration of specimen 6, the concentration of minocycline hydrochloride and rifampin in specimen 5 after curing was determined. […] The antibiotics remaining after curing were calculated as: {(Peak integration of specimen 5)/(peak integration of specimen 6)}×100%

Data set [4] is described as follows: Antibiotics remaining after curing, pentaerythritol tetrakis(3-mercaptopropionate)/PEG DM thiolene coating (EXP12-formula) with PTPO, HPLC peak integration (Example 12). It is filed as physicochemical. The note with it: specimen 11 vs specimen 9, 0.4 mg/cm^2 each drug, curing time 10 mins. The procedure:
All procedures were same as Example 11 except that the thiolene formula was replaced by the following formula (10 g of pentaerythritol tetrakis(3-mercaptopropionate) (from Sigma Aldrich, P #381462, lot #80896TMV) and 21.4 g of polyethylene glycol dimethacrylate (from Sigma Aldrich, P #409510, lot # MKBP0253V) (EXP12-formula). The curing time was set to 10 mins. The two specimens used in curing are shown in the following Table 11. Specimen 9 as discussed in Example 11 was used as a standard.
The top is specimen 9 and the bottom is the cured specimen 11 with drug loading.

The format of data set [5] is physicochemical. The note with it: 0.04 mg/cm^2. The procedure: Mesh was cut into three pieces, each approximate 4 cm^2. Each piece was weighed and it was made sure each piece was 50 mg as the actual area was, ca, 50.0 mg/(10.7 mg/cm^2)=4.7 cm^2. Thiolene formula (60 mg) (thiolene formula contains 67.22 wt % Pentaerythritol tetrakis(3-mercaptopropionate), 32.73 wt % […] Isocyanurate, and 0.05 wt % Hydroquinone:tertbutyl cathetol (1:1 mixture by moles), density is, ca, 1.2 g/mL) was dissolved in acetone aiming for the concentration of 100 mg/mL. […] Made three specimens as shown Table 1. The solutions were transferred onto PP mesh using an automatic pipette while the meshes were held by a plastic clamp. […] The thiolene formula loading was set to 2.5 mg/cm^2 in this experiment. […] HPLC runs of each specimen extract from methanol were performed under the conditions below: • Channel A: 35 mM sodium phosphate monobasic, 1 vol % triethylamine, final pH=7.5 with phosphoric acid • Channel B: acetonitrile • Column temperature=30° C. • Column type: 3×150 mm with 3.5 μm phenyl phase packing • Measurement: absorbance at 280 nm • Solvent flow rate: 1 mL/min • Solvent profile: 0-10 minutes 0-50 vol % Channel B; 10-20 minutes 50 vol % Channel B; 20-25 minutes 50-0 vol % Channel B. The concentration of minocycline hydrochloride and rifampin in specimen 2 after curing were determined using direct proportions of peak area integration of specimen 3. • a. […]
This is another data set of the same source.

Data set [6] is described as follows: Drug destruction on curing, thiolene coating with PTPO on polypropylene mesh, HPLC of methanol extracts (Example 6). It counts as physicochemical. The conditions noted are these: 0.1 wt % PTPO, halogen dental curing lamp, six coats, theoretical 0.2 mg/cm^2 each drug. The procedure:
1:1:8 weight ratio of monomer (67.22 wt % pentaerythritol tetrakis(3-mercaptopropionate), 32.73 wt % triallyl isocyanurate, and 0.05 wt % hydroquinone:tertbutyl cathetol (1:1 mixture by mole)):methanol:acetone containing minocycline hydrocholoride and rifampin at 50 mg/mL of each drug blend was made. PTPO (BASF P/N 56415733) was added at 0.1 wt %. Polymerization was induced using a halogen dental curing lamp through curing at a distance 2″ from the light guide for 10 seconds on each side of the mesh. Six coats were applied to result in a theoretical loading of 0.2 mg/cm^2 of each drug. HPLC analysis of methanol extracts indicated 72% and 69% destruction of minocycline hydrochloride and rifampin, respectively. High degradation rates may be the result of the phosphine oxide initiator, which could destroy these drugs upon activation.

Data set [7] is described as follows: Drug survival during polymerization and post cure loading, BPDM/NTG-GMA methacrylate coating on DualMesh ePTFE, HPLC of methanol extracts (Example 4). It is filed as physicochemical. The conditions noted are these: drugs in casting solution, theoretical 400 μg/cm^2 each drug, methanol extract. The text has this: An acetone:ethanol:BPDM solution:NTG-GMA solution in 1:1:1:1 volume ratio was used to coat DualMesh Biomaterial with drugs both present during the polymerization process and loaded into the polymer network after curing had been performed. Circular 0.785 cm^2 samples of DualMesh were coated. In the version were drugs were included in the casting solution, both minocycline hydrochloride and rifampin were incorporated at levels such if no degradation were to have occurred each drug would have been loaded at a bulk surface area density of 400 μg/cm^2. The post-cure loaded version was created by coating the DualMesh with the same amount of polymer coating, and then submerging the specimen in a 5 mL methanol bath containing each drug at 10 mg/mL overnight (˜18 hours) at 4° C. After soaking in the methanol/drug solution, specimens were retrieved from the loading solution and allowed to air dry. Once dried they were passed through two rinse solutions using the following technique: forceps were used to hold specimens while contacting a minimal amount of the surface, vigorously shake the specimen in a 15 mL methanol rinse for 15 seconds, move specimen to a second 15 mL methanol bath and vigorously shake for an additional 15 seconds, and finally allow to air dry. Shaking was performed by moving the forceps back while holding the specimen submerged in the rinse. […]

Regarding `CN(C)c1ccc(O)c2c1C[C@H]1C[C@H]3[C@H](N(C)C)C(O)=C(C(N)=O)C(=O)[C@@]3(O)C(O)=C1C2=O` [Minocycline, minocycline hydrochloride], the Remaining after curing in data set [1] turned out to be 85%; in data set [2] it was 64%; in data set [3] it was 76%; in data set [4] it was 54%; in data set [5], 88%.

`CO[C@H]1/C=C/O[C@@]2(C)Oc3c(C)c(O)c4c(O)c(c(/C=N/N5CCN(C)CC5)c(O)c4c3C2=O)NC(=O)/C(C)=C\C=C\[C@H](C)[C@H](O)[C@@H](C)[C@@H](O)[C@@H](C)[C@H](OC(C)=O)[C@@H]1C` [Rifampin, rifampin]: the Remaining after curing amounted to 85% in data set [1]; 61% in data set [2]; 97% in data set [3]; 58% in data set [4]; 87% in data set [5]. The same compound registered a destruction of drug in data set [6] of 69%. In addition, the “average drug survival during the polymerization process” value in data set [7] was 79%.

(Values after US10729820B2, “Methods and processes for application of drug delivery polymeric coatings” (Ariste Medical, LLC, priority 2014, dated 2020).)
